Results on 8 compounds are retold here after patent US5262423A, “Rapamycin arylcarbonyl and alkoxycarbonyl carbamates as immunosuppressive and antifungal agents” (American Home Products Corporation, priority 1992, dated 1993).

In one assay the test system is Candida albicans 3669. Description: plate test procedure for anti-Candida activity, strain 3669. It is filed as cell-based. The method, then: (§1) Immunosuppressive activity was evaluated in an in vitro standard pharmacological test procedure to measure lymphocyte proliferation (LAF) and in an in vivo procedure to evaluate the survival time of a pinch skin graft. Antifungal activity was determined against five strains of Candida albicans.
(§2) Antifungal activity of the compounds of this invention is measured against 5 strains of Candida albicans using a plate test procedure for measurement of inhibition. The following represents the typical procedure used. The compound to be tested is placed on sterile dried 1/4" plate disks, and allowed to dry. Agar plates are seeded with fungi and allowed to solidify. The impregnated disks are placed on the seeded Agar surface and incubated for the time required for the particular culture. Results shown in Table II are expressed in Minimum Inhibitory Concentration (MIC) (μg/ml) to inhibit growth.

For assay [1], the system named is Candida albicans ATCC 38248. The assay can be described thus: plate test procedure for anti-Candida activity, strain ATCC 38248. It is filed as cell-based. The procedure: as §1, §2
In assay [2] the test system is pinch skin graft (allograft). The assay can be described thus: in vivo pinch skin graft survival (Skin Graft Model). More on the design: species or system mice: male BALB/c donors, male C3 H recipients. Conditions: intraperitoneally once daily for 6 consecutive days; mean ± S.D.; dose not given. The procedure:
as §1
(§3) Immunosuppressive activity was evaluated in an in vitro standard pharmacological test procedure to measure lymphocyte proliferation (LAF) and in one in vivo standard pharmacological test procedure to evaluate the survival time of a pinch skin graft.
The in vivo test procedure is designed to determine the survival time of pinch skin graft from male BALB/c donors transplanted to male C3 H recipients. The method is adapted from Billingham R. E. and Medawar P. B., J. Exp. Biol. 28:385-402, (1951). Briefly, a pinch skin graft from the donor is grafted on the dorsum of the recipient as a allograft, and an isograft is used as control in the same region. The recipients are treated with the test compound, intraperitoneally once daily for 6 consecutive days. Untreated recipients serve as rejection control. The graft is monitored daily and observations are recorded until the graft becomes 95% area necrosis or the suture line is off. This is considered as the rejection day. The graft survival time is one day before the rejection day. The mean graft survival time (number of days ±S.D.) of the drug treatment group is compared with the control group.

For assay [3], the system named is Candida albicans ATCC 38247. Description: plate test procedure for anti-Candida activity, strain ATCC 38247. It is filed as cell-based. The method, then:
as §1, §2

The subject of assay [4] is Candida albicans ATCC 38246. The assay can be described thus: plate test procedure for anti-Candida activity, strain ATCC 38246. It is filed as cell-based. The method, then: as §1, §2
Assay [5] has as its system thymocyte proliferation (lymphocyte proliferation, LAF). Description: comitogen-induced thymocyte proliferation procedure (LAF). It is filed as cell-based, normal BALB/c mice. Conditions: Mus musculus, 72 h, mouse thymocytes, 72 hours with PHA and IL-1, test compound (Analogs). The method, then: as §1, §3
The comitogen-induced thymocyte proliferation procedure (LAF) was used as an in vitro measure of the immunosuppressive effects of representative compounds. Briefly, cells from the thymus of normal BALB/c mice were cultured for 72 hours with PHA and IL-1 and pulsed with tritiated thymidine during the last six hours. Cell are cultured with and without various concentrations of rapamycin, cyclosporin A, or test compound. Cells are harvested and incorporated; radiactivity is determined. Inhibition of lymphoproliferation is assessed in percent change in counts per minute from non-drug treated controls. The results are expressed by the following ratio: [formula] or as percent inhibition or IC50.

Assay [6] concerns Candida albicans ATCC 10231. The assay can be described thus: plate test procedure for anti-Candida activity, strain ATCC 10231. It counts as cell-based. The method, then:
as §1, §2

Another assay relates to transplant rejection. Conditions: cited from earlier work.
The test system of a further assay is tumor. Conditions: alone or in combination with picibanil; cited from earlier work.
For assay [7], the system named is adjuvant arthritis model, a model for rheumatoid arthritis. Conditions: in vivo; cited from earlier work.
The test system of assay [8] is formation of IgE-like antibodies. The settings on record: in vivo; cited from earlier work.
Assay [9] deals with experimental allergic encephalomyelitis model, a model for multiple sclerosis. Conditions: in vivo; cited from earlier work.
For the next assay, the system named is Candida albicans. The settings on record: in vitro and in vivo; cited from earlier work.
For a further assay, the system named is fungi. Conditions: cited from earlier work.
[10] abbreviates: Candida albicans 3669, plate test, read-out: Minimal Inhibitory Concentration (MIC), 3669.
The mark [11] stands for this setting: ATCC38248, Candida albicans ATCC 38248, plate test, read-out: Minimal Inhibitory Concentration (MIC), ATCC 38248.
[12] abbreviates: ATCC38247, Candida albicans ATCC 38247, plate test, read-out: Minimal Inhibitory Concentration (MIC), ATCC 38247.
The mark [13] stands for this setting: ATCC38246, Candida albicans ATCC 38246, plate test, read-out: Minimal Inhibitory Concentration (MIC), ATCC 38246.
The mark [14] stands for this setting: ATCC10231, Candida albicans ATCC 10231, plate test, read-out: Minimal Inhibitory Concentration (MIC), ATCC 10231.

≈ marks a conversion by molar mass, not a printed value. Like-named read-outs stand apart in the source and are kept apart here.

One may read the IC50 as the concentration needed to halve the response being measured. Consider `COC(=O)NC(=O)O[C@@H]1CC[C@@H](C[C@@H](C)[C@@H]2CC(=O)[C@H](C)/C=C(\C)[C@@H](O)[C@@H](OC)C(=O)[C@H](C)C[C@H](C)/C=C/C=C/C=C(\C)[C@@H](OC)C[C@@H]3CC[C@@H](C)[C@@](O)(O3)C(=O)C(=O)N3CCCC[C@H]3C(=O)O2)C[C@H]1OC` [Example 4, Rapamycin 42-ester with N-methoxycarbonylcarbamic acid], for which the MIC in the assay on Candida albicans 3669 (setting [10]) amounted to 0.2 µg/mL (≈ 0.197 µM); in assay [1] (setting [11]), 0.1 µg/mL (≈ 0.0985 µM); in [3] (setting [12]) it was 0.05 µg/mL (≈ 0.0492 µM); in assay [4] (setting [13]) it was 0.2 µg/mL (≈ 0.197 µM); in [6] (setting [14]) it was 0.05 µg/mL (≈ 0.0492 µM). For the same compound, the “Skin Graft Model (Survival time days)” value in [2] was 10.33 ± 0.52 days. The compound further registered an IC50 in assay [5] of 2.7 nM.

Turning to Cyclosporin A, the “inhibition of transplant rejection / immunosuppressive effect” value with transplant rejection is listed as “effective as immunosuppressive agents”.

Consider `CO[C@H]1C[C@@H]2CC[C@@H](C)[C@@](O)(O2)C(=O)C(=O)N2CCCC[C@H]2C(=O)O[C@H]([C@H](C)C[C@@H]2CC[C@@H](O)[C@H](OC)C2)CC(=O)[C@H](C)/C=C(\C)[C@@H](O)[C@@H](OC)C(=O)[C@H](C)C[C@H](C)/C=C/C=C/C=C/1C` [Rapamycin], for which the MIC came to 0.025 µg/mL (≈ 0.0273 µM) in the assay on Candida albicans 3669 (Candida albicans, 3669, read-out: Minimal Inhibitory Concentration (MIC), 3669); 0.006 µg/mL (≈ 0.00656 µM) in [1] (Candida albicans, ATCC38248, read-out: Minimal Inhibitory Concentration (MIC), ATCC 38248); 0.003 µg/mL (≈ 0.00328 µM) in assay [3] (Candida albicans, ATCC38247, read-out: Minimal Inhibitory Concentration (MIC), ATCC 38247); 0.025 µg/mL (≈ 0.0273 µM) in assay [4] (Candida albicans, ATCC38246, read-out: Minimal Inhibitory Concentration (MIC), ATCC 38246); 0.003 µg/mL (≈ 0.00328 µM) in [6] (Candida albicans, ATCC10231, read-out: Minimal Inhibitory Concentration (MIC), ATCC 10231). Besides, the antitumor activity entry in the assay with tumor was “shown to have antitumor activity”. Also, the “effect in adjuvant arthritis model” value in assay [7] was “effective”. In addition, in assay [8], the “inhibition of formation of IgE-like antibodies” value is on record as “effectively inhibited the formation of IgE-like antibodies”. Besides, the “effect in experimental allergic encephalomyelitis model” value in assay [9] is given as “effective”. Moreover, the “Skin Graft Model (Survival time days)” value in assay [2] was over 12.0 days. In the assay with transplant rejection, the “inhibition of transplant rejection / immunosuppressive effect” value is “effective in inhibiting transplant rejection”. The antifungal activity result in the assay with Candida albicans is “antifungal activity, particularly against Candida albicans, both in vitro and in vivo”.

Take `CO[C@H]1C[C@@H]2CC[C@@H](C)[C@@](O)(O2)C(=O)C(=O)N2CCCC[C@H]2C(=O)O[C@H]([C@H](C)C[C@@H]2CC[C@@H](OC(=O)NC(=O)c3ccccc3)[C@H](OC)C2)CC(=O)[C@H](C)/C=C(\C)[C@@H](O)[C@@H](OC)C(=O)[C@H](C)C[C@H](C)/C=C/C=C/C=C/1C` [Example 1, Rapamycin 42-ester with benzoylcarbamic acid]: the MIC in the assay with Candida albicans 3669 (setting [10]) was 0.1 µg/mL (≈ 0.0942 µM); in assay [1] (setting [11]), 0.1 µg/mL (≈ 0.0942 µM); in assay [3] (setting [12]) it was 0.05 µg/mL (≈ 0.0471 µM); in assay [4] (setting [13]) it was 0.1 µg/mL (≈ 0.0942 µM); in [6] (setting [14]), 0.05 µg/mL (≈ 0.0471 µM). For the same compound, the “Skin Graft Model (Survival time days)” value in assay [2] worked out at 10.5 ± 0.55 days. For the same compound, the 50% inhibitory concentration (IC50) in assay [5] came out at 1.4 nM.

33-desmethylrapamycin: the “antifungal and immunosuppressant activities” value with fungi was “antifungal and immunosuppressant activities”.

With `CO[C@H]1C[C@@H]2CC[C@@H](C)[C@@](O)(O2)C(=O)C(=O)N2CCCC[C@H]2C(=O)O[C@H]([C@H](C)C[C@@H]2CC[C@@H](OC(=O)NC(=O)c3ccccc3)[C@H](OC)C2)CC(=O)[C@H](C)/C=C(\C)[C@@H](OC(=O)NC(=O)c2ccccc2)[C@@H](OC)C(=O)[C@H](C)C[C@H](C)/C=C/C=C/C=C/1C` [Example 3, Rapamycin 31,42 diester with benzoylcarbamic acid], in assay [5], the IC50 was 1.2 nM.

In the case of `CO[C@H]1C[C@@H]2CC[C@@H](C)[C@@](O)(O2)C(=O)C(=O)N2CCCC[C@H]2C(=O)O[C@H]([C@H](C)C[C@@H]2CC[C@@H](OC(=O)NC(=O)c3ccccc3)[C@H](OC)C2)CC(=O)[C@H](C)/C=C(\C)[C@@H](OC(=O)CN(C)C)[C@@H](OC)C(=O)[C@H](C)C[C@H](C)/C=C/C=C/C=C/1C` [Example 2, Rapamycin 31-ester with N,N-dimethylglycine, 42-ester with benzoylcarbamic acid], the MIC was determined as 0.4 µg/mL (≈ 0.349 µM) in the assay with Candida albicans 3669 (setting [10]); 0.4 µg/mL (≈ 0.349 µM) in assay [1] (setting [11]); 0.1 µg/mL (≈ 0.0872 µM) in [3] (setting [12]); 0.4 µg/mL (≈ 0.349 µM) in assay [4] (setting [13]); 0.1 µg/mL (≈ 0.0872 µM) in assay [6] (setting [14]). For the same compound, the “Skin Graft Model (Survival time days)” value in assay [2] came out at 10.4 ± 0.55 days. In assay [5], this compound returned a 50% inhibitory concentration (IC50) of 4.8 nM.

Regarding `C=CC[C@@H]1/C=C(\C)C[C@H](C)C[C@H](OC)[C@H]2O[C@@](O)(C(=O)C(=O)N3CCCC[C@H]3C(=O)O[C@H](/C(C)=C/[C@@H]3CC[C@@H](O)[C@H](OC)C3)[C@H](C)[C@@H](O)CC1=O)[C@H](C)C[C@@H]2OC` [FK-506], the “inhibition of transplant rejection / immunosuppressive effect” value in the assay with transplant rejection is “effective as immunosuppressive agents”.
